Some test systems named below: HCC-2998 colon; HCT-15 colon; HOP-62 NSCLC; MCF7 breast; MDA-N; NCI-H23 lung; NCI-H522 lung; RPMI-8226 leukemia; SF-268 CNS; UACC-257 melanoma.
Common to all, as to experiment: NCI-60 cell line screen, 48 h

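Test compounds were applied to cells in 96-well plates for 48 hours at 5 doses. At the TGI there is no net growth.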

For the compound `CC(C)(C)OC(=O)N1CCc2c(n(C/C=C/c3ccccc3)[nH]c2=O)C1`, the TGI in the experiment on HCC-2998 colon, with HCT-15 colon, in the experiment on HOP-62 NSCLC, with MCF7 breast, in the experiment on MDA-N and in the experiment on NCI-H23 lung was more than 100 µM each time. Besides, the TGI in the experiment on NCI-H522 lung, in the experiment with RPMI-8226 leukemia, in the experiment with SF-268 CNS and in the experiment on UACC-257 melanoma was more than 100 µM in each case.

As to `COC(=O)c1ccc(/C=C2\CCc3ccccc3C2=O)cc1`, the TGI with HCC-2998 colon, with HCT-15 colon, in the experiment with HOP-62 NSCLC, in the experiment with MCF7 breast, in the experiment on MDA-N and with NCI-H23 lung was more than 100 µM in each case. Also, the TGI in the experiment on NCI-H522 lung, with RPMI-8226 leukemia, in the experiment with SF-268 CNS and with UACC-257 melanoma was more than 100 µM in each case.

With `O=C1CSC2(CC(/C=C/c3ccccc3Br)=NN2c2cccc(S(=O)(=O)O)c2)N1c1nc2ccccc2s1` (configuration not stated), the TGI in the experiment with HCC-2998 colon, in the experiment on HCT-15 colon, in the experiment on MCF7 breast, in the experiment with MDA-N, in the experiment with NCI-H23 lung and with NCI-H522 lung was more than 100 µM each time. Besides, the TGI in the experiment with RPMI-8226 leukemia, in the experiment on SF-268 CNS and in the experiment on UACC-257 melanoma was more than 100 µM in each case.

Turning to `CC/C(Cl)=N\OC(=O)Nc1ccc(F)cc1F`, the TGI was found to be 36.7 µM with HCC-2998 colon; 5.24 µM with HCT-15 colon; 46.1 µM with HOP-62 NSCLC; 44.9 µM in the experiment with MCF7 breast; 12.6 µM in the experiment on MDA-N; 46.5 µM in the experiment with NCI-H23 lung. The TGI is 3.65 µM in the experiment on NCI-H522 lung, 3.57 µM in the experiment with RPMI-8226 leukemia, more than 57.7 µM with SF-268 CNS and 34.2 µM in the experiment on UACC-257 melanoma.

For `O=[N+]([O-])/C=C/c1cn(CCCCCn2cc(/C=C/[N+](=O)[O-])c3ccccc32)c2ccccc12`, the TGI with HCC-2998 colon came out at 2.8 µM; in the experiment on HCT-15 colon, 8.67 µM; with HOP-62 NSCLC, 10.6 µM; with MCF7 breast it was 1.62 µM; with MDA-N, 6.67 µM; with NCI-H23 lung, 16 µM. The TGI in the experiment with NCI-H522 lung was 50.4 µM; in the experiment on RPMI-8226 leukemia, more than 100 µM; in the experiment with SF-268 CNS it was 15.6 µM; with UACC-257 melanoma, 13.8 µM.

Consider `CC12CC(C/C1=N/O)C(C)(C)C2` (configuration not stated), for which the TGI in the experiment with HCC-2998 colon, in the experiment on HOP-62 NSCLC, in the experiment with MCF7 breast, with MDA-N, with NCI-H23 lung and with NCI-H522 lung was more than 100 µM in each case. The TGI with SF-268 CNS and in the experiment with UACC-257 melanoma was more than 100 µM throughout.

As to `CCOC(=O)CCCn1cc(C(=O)OC)nn1`, the TGI with HCC-2998 colon, in the experiment with HCT-15 colon, in the experiment with HOP-62 NSCLC, with MCF7 breast, in the experiment on MDA-N and in the experiment on NCI-H23 lung was more than 100 µM each time. Besides, the TGI in the experiment with SF-268 CNS and in the experiment with UACC-257 melanoma was more than 100 µM throughout.

Turning to `CC1(C)CCC2(C(=O)OC3OC(CO)C(O)C(O)C3O)CCC3(CO)C(=CCC4C5(C)CC(O)C(O)C(C)(C(=O)OC6OC(CO)C(O)C(O)C6O)C5CCC43C)C2C1` (configuration not stated), the TGI with HCC-2998 colon, in the experiment on HCT-15 colon, in the experiment on HOP-62 NSCLC, in the experiment on MCF7 breast, with MDA-N and in the experiment with NCI-H23 lung was more than 100 µM in each case. The TGI with NCI-H522 lung, in the experiment on SF-268 CNS and with UACC-257 melanoma was more than 100 µM in each case.

Take `O=S1(=O)OCCOS(=O)(=O)C1Cc1nc2ccccc2[nH]1`: the TGI in the experiment on HCC-2998 colon, with HCT-15 colon, in the experiment with HOP-62 NSCLC, with MCF7 breast, with MDA-N and in the experiment on NCI-H23 lung was more than 100 µM in each case. Further, the TGI in the experiment with RPMI-8226 leukemia and with UACC-257 melanoma was more than 100 µM in each case.

For `Cc1ccc(S(=O)(=O)N/N=C2\C3CC4CC(C3)C2C4)cc1` (configuration not stated), the TGI in the experiment with HCC-2998 colon, in the experiment on HCT-15 colon, in the experiment with HOP-62 NSCLC, in the experiment on MCF7 breast, in the experiment on MDA-N and in the experiment with NCI-H23 lung was more than 100 µM throughout. Besides, the TGI in the experiment with NCI-H522 lung, in the experiment with RPMI-8226 leukemia and in the experiment with UACC-257 melanoma was more than 100 µM throughout.

Take `COc1ccc(C2=C(OC(=O)N(C)C)c3cccn3-c3cc(Cl)ccc3S2)cc1`: the TGI with HCC-2998 colon, with HCT-15 colon, in the experiment with HOP-62 NSCLC, with MCF7 breast, in the experiment on MDA-N and in the experiment on NCI-H23 lung was more than 10 µM in each case. Moreover, the TGI in the experiment with RPMI-8226 leukemia, with SF-268 CNS and with UACC-257 melanoma was more than 10 µM in each case.

Turning to `COc1cc2cc(C(=O)N3CC(CCl)c4c3cc([N+](C)(C)Cc3ccc([N+](=O)[O-])n3C)c3ccccc43)[nH]c2c(OC)c1OC` (configuration not stated), the TGI was 2.48 µM in the experiment with HCC-2998 colon; more than 100 µM in the experiment with HOP-62 NSCLC; 12.5 µM with MCF7 breast; 6.64 µM in the experiment with MDA-N; 2.49 µM in the experiment with NCI-H23 lung; 0.981 µM in the experiment on NCI-H522 lung. The results for the TGI in the experiment on RPMI-8226 leukemia, in the experiment on SF-268 CNS and with UACC-257 melanoma were 8.31 µM, more than 100 µM and 5.4 µM, respectively.

Turning to `N#CCCC1(CCC#N)CCCCCCC(CCC#N)(CCC#N)C(O)C1O` (configuration not stated), the TGI in the experiment on HCC-2998 colon, in the experiment with HCT-15 colon, in the experiment with HOP-62 NSCLC, in the experiment on MCF7 breast, with MDA-N and in the experiment on NCI-H23 lung was more than 100 µM throughout. Besides, the TGI in the experiment with NCI-H522 lung, in the experiment on SF-268 CNS and in the experiment on UACC-257 melanoma was more than 100 µM each time.

For `O=C1OI(C#Cc2ccccc2)c2ccccc21`, the TGI stood at 21.4 µM in the experiment with HCC-2998 colon; 11.2 µM in the experiment with HCT-15 colon; 22.6 µM with HOP-62 NSCLC; 14.9 µM with MCF7 breast; 30.6 µM in the experiment on MDA-N; 10.8 µM in the experiment with NCI-H23 lung. For the same compound, the TGI in the experiment with RPMI-8226 leukemia was found to be 4.24 µM; in the experiment with SF-268 CNS, 9.96 µM; with UACC-257 melanoma it was 25.2 µM.

These data come from PubChem BioAssay (NCI).
